Source: PubChem BioAssay (NCI)
“And” between values parts separate entries of the source, which are not always exact repeats. Equal values may be shown once.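 A five-concentration, 48-hour dose response in 96-well plates underlies each endpoint, interpolated linearly between surrounding concentrations. Here, GI50 denotes the concentration required for 50% inhibition of growth. TGI is the concentration that stops growth completely.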

What was measured:
Assay in all cases: NCI anticancer screen, dose series, 48 h
HS 578T breast = tested on: HS 578T breast
BT-549 breast = tested on: BT-549 breast
MCF7 breast = tested on: MCF7 breast
MDA-MB-435 = tested on: MDA-MB-435
MDA-N = tested on: MDA-N
DMS 273 small cell lung = tested on: DMS 273 small cell lung
LXFL 529 NSCLC = tested on: LXFL 529 NSCLC
SNB-78 CNS = tested on: SNB-78 CNS

Row | Compound | TGI (HS 578T breast) | GI50 (BT-549 breast) | TGI (BT-549 breast) [µM] | GI50 (MCF7 breast) [µM] | TGI (MCF7 breast) | GI50 (MDA-MB-435) [µM] | TGI (MDA-MB-435) [µM] | TGI (MDA-N) [µM] | TGI (DMS 273 small cell lung) [µM] | TGI (LXFL 529 NSCLC) [µM] | TGI (SNB-78 CNS) [µM] | GI50 (HS 578T breast)
1 | COC(=O)C1(C)Cc2cc(OC(C)=O)c(OC(C)=O)cc2N1 (centres undefined) | > 24.1 µM | 4.93 µM | 22 | 3.74 | 21.6 µM | 6.29 | 61.5 |  |  |  |  | 
2 | CN(C)CCNC(=O)Cn1ccc(=O)c2c([N+](=O)[O-])cccc21 | > 100 µM |  | > 100 |  | > 100 µM |  | > 100 | > 100 |  |  |  | 
3 | CC(NC(=O)N(C)C)NC(=O)N(C)C | > 10 µM |  |  |  | > 10 µM |  | > 10 | > 10 |  |  |  | 
4 | c1ccc(N2N=C(c3ccco3)CC2c2ccco2)cc1 (centres undefined) |  |  |  |  |  |  |  |  | > 100 | > 100 | > 100 | 
5 | Cc1ccc(NC(=O)c2cc(S(=O)(=O)N3C(=O)NC(=O)NS3(=O)=O)c(S)cc2Cl)cc1 | 95.8 µM | 24.2 µM | 63.9 | 28 | > 100 µM | 17.1 | 35.7 |  |  |  |  | 29.4 µM
6 | O=C(/C=C/c1ccccc1)CC(=O)CCC(=O)Nc1ccc(Cl)cc1 |  |  |  |  |  |  |  |  | > 100 | > 100 | > 100 | 
7 | COc1cc(NCCCCCCCNC(C)C)c2nccc(C)c2c1 | 39.7 µM | 17.7 µM | 33.5 | 2.68 | 10.8 µM | 6.95 | 21.2 |  |  |  |  | 17.4 µM
8 | O=c1c(F)cn(Cc2ccccc2CCl)c(=O)n1Cc1ccccc1CCl | 6.93 µM | 1.41 µM | 2.91 | 1.16 | 6.11 µM | 1.68 | 3.4 |  |  |  |  | 1.92 µM
9 | O=C(O)c1ccccc1/C=N/N=C1c2ccccc2-c2ccccc21 | 34.7 µM |  | > 100 |  | > 100 µM |  | > 100 | > 100 |  |  |  | 
10 | c1c[nH]c(CN2CCOCC2)n1 | > 100 µM |  | > 100 |  | > 100 µM |  | > 100 | > 100 |  |  |  | 
11 | Nc1ccc(/C=C/C(=O)NCc2cc3cc(-c4ccc(C(=O)N5CCC(F)(F)CC5)cc4)cc(-c4ccc(F)cc4)c3o2)cn1 | > 100 µM | 5.95 µM | > 100 | 14.4 | > 100 µM | 0.752 | > 100 |  |  |  |  | > 100 µM
12 | COc1ccc(CN2CCC/C=C/CC(Cl)(Cl)C2=O)cc1 |  |  |  |  |  |  |  |  | > 100 | > 100 |  | 
13 | Cn1c2c(c3ccccc31)CCN(CCN1CCN(c3cccc(Cl)c3)CC1)C2=O |  |  |  |  |  |  |  |  | > 100 | > 100 |  | 
14 | COc1ccc(OC)c(Cn2cc3c(c2-c2ccccc2)CCc2cnoc2-3)c1 | > 100 µM |  |  | 4.47 | > 100 µM | 2.18 | 9.11 |  |  |  |  | 4.95 µM
15 | Oc1ccccc1-c1nn(CNc2ccccc2Cl)c(=S)o1 | > 100 µM | > 100 µM | > 100 | 40 | > 100 µM | > 100 | > 100 |  |  |  |  | > 100 µM
16 | O=C(O)[C@H](c1ccccc1)[C@@H](C(=O)O)c1ccccc1 | > 100 µM |  | > 100 |  | > 100 µM |  | > 100 | > 100 |  |  |  | 
17 | CC(=O)O[C@H]1CCc2c(cc(N)c3c2C(=O)C[C@]2(C)C([C@H](C)CCCC(C)C)CCC32C)C1(C)C (some centres undefined) | > 100 µM |  | > 100 |  | > 100 µM |  | > 100 | > 100 |  |  |  | 
18 | CC(C)(C)OC(=O)NCCCCCCCn1c2c(c3ccccc3c1=O)C(=O)c1ccccc1-2 | 49.5 µM | 22.4 µM | 46.6 | 55.4 | > 100 µM | 82 | > 100 |  |  |  |  | 17.4 µM
19 | CCCCn1c(-c2ccc(C(=O)O/N=C(\N)c3ccc4c(c3)OCO4)cc2)nc(-c2ccccc2)c1-c1ccccc1 | 5.09 µM | 2.61 µM | 7.84 | 2.38 | 8.83 µM | 1.93 | 3.9 |  |  |  |  | 1.88 µM
20 | C=C1C(=O)O[C@H]2[C@H]1CC/C(C=Nc1c(N)cc(C(F)(F)F)cc1Br)=C\CC[C@@]1(C)O[C@@H]21 | 9.5 µM | 1.41 µM | 2.91 | 0.982 | 4.48 µM | 1.86 | 5.74 |  |  |  |  | 2.08 µM
21 | C/C(=N/NC(=O)C[N+](C)(C)C)C(CN(C)C)C(=O)Nc1ccccc1 (centres undefined) |  |  |  |  |  |  |  |  | > 100 | > 100 |  | 
22 | O=S(=O)(CCCl)c1ccc(Cl)cc1 | 19.2 µM | 3.36 µM | 12.6 | 2.19 | 10.3 µM | 2.7 | 12.6 |  |  |  |  | 3 µM
23 | N#CNC(N)=Nc1ccc(Cl)cc1 | > 100 µM |  | > 100 |  | > 100 µM |  | > 100 | > 100 |  |  |  | 
24 | Cc1ccc(-c2nc3nc(-c4ccc(F)cc4)nc(N4CCCNCC4)c3o2)cc1 | 3.69 µM | 1.66 µM | 3.37 | 1.23 | 2.96 µM | 1.71 | 3.13 |  |  |  |  | 1.78 µM
25 | O=C1OCC2=C1C(c1ccccc1)c1cc3c(cc1N2CCO)OCO3 (centres undefined) | 33.7 µM | 4.93 µM | > 50 | 1.76 | > 50 µM | 0.563 | 3.25 |  |  |  |  | 2.72 µM
26 | CCC1=CC2CN(C1)Cc1c([nH]c3ccccc13)[C@@](C(=O)OC)(c1cc3c(cc1OC)N(C)[C@H]1[C@@](O)(C(=O)OC)[C@H](OC(C)=O)[C@]4(CC)C=CCN5CC[C@]31[C@@H]54)C2 (some centres undefined) | 19.8 µM and 45.7 µM | < 0.005 µM and 0.043 µM |  | < 0.005 | 50 µM and > 100 µM | < 0.005 |  |  |  |  |  | 0.00827 µM and 0.0277 µM
27 | COc1cnc2c(c1)C(=O)c1c-2n(CCCN2CCN(C)CC2)c(=O)c2cc([N+](=O)[O-])ccc12 | 31 µM |  |  | 0.0162 | 1.2 µM | 0.166 | 0.334 |  |  |  |  | 14.5 µM
28 | O=C(N[C@@H](C[Se][Se]C[C@H](NC(=O)c1ccc(Br)cc1F)C(=O)O)C(=O)O)c1ccc(Br)cc1F | > 100 µM | > 100 µM | > 100 | 60.8 | > 100 µM | > 100 | > 100 |  |  |  |  | > 100 µM
29 | CCOC(=O)C(NC(=O)c1nc[nH]c1[N+](=O)[O-])C(C)C (centres undefined) |  |  |  |  |  |  |  |  | > 100 | > 100 |  | 
